One series addresses T1, CpaF^73-501 (Caulobacter vibrioides, UniProt Q9L714).
T1 construct: IDR truncation, residues 73-501, N-terminal His6 tag (pET28a), E. coli Rosetta 2
Put plainly: enzyme-coupled ATPase assay (pyruvate kinase / lactate dehydrogenase, NADH at […] nm). It is filed as biochemical. Conditions: 1 mM ATP, 1 mM MgCl2, pH 8.0, 30 °C.

Another series has as its target T2, CpaF (Caulobacter vibrioides, UniProt Q9L714, K287A).
T2 construct: full length (501 residues), N-terminal His6 tag (pET28a), tag removal not described, E. coli Rosetta 2; homohexamer; residues 80-501 modelled
The description is as above. It is filed as biochemical. Conditions: 1 mM ATP, 1 mM MgCl2, pH 8.0, 30 °C; Walker A mutant.

Another series has as its target T3, CpaF^66-501 (Caulobacter vibrioides, UniProt Q9L714).
T3 construct: IDR truncation, residues 66-501, N-terminal His6 tag (pET28a), E. coli Rosetta 2
The series is described as above. It is filed as biochemical. Conditions: 1 mM ATP, 1 mM MgCl2, pH 8.0, 30 °C.

The next series deals with T4, CpaF^80-501 (Caulobacter vibrioides, UniProt Q9L714).
T4 construct: IDR truncation, residues 80-501 (whole IDR removed), N-terminal His6 tag (pET28a), E. coli Rosetta 2
The description is as above. Conditions: 1 mM ATP, 1 mM MgCl2, pH 8.0, 30 °C. The series is classed as biochemical.

Series [1] concerns the molecule itself. In words: cryo-EM structure; purified CpaF, 5 mg/mL, 50 mM HEPES pH 8.0, 200 mM NaCl, 1 mM TCEP, 0.05% CHAPS; three samples: no added nucleotide, 50 uM equimolar ATP/ADP/MgCl2, 1 mM ATP/MgCl2; C2-symmetric hexamers (closed, compact, expanded).

T2 sequence (Q9L714 entry or part of it K287A): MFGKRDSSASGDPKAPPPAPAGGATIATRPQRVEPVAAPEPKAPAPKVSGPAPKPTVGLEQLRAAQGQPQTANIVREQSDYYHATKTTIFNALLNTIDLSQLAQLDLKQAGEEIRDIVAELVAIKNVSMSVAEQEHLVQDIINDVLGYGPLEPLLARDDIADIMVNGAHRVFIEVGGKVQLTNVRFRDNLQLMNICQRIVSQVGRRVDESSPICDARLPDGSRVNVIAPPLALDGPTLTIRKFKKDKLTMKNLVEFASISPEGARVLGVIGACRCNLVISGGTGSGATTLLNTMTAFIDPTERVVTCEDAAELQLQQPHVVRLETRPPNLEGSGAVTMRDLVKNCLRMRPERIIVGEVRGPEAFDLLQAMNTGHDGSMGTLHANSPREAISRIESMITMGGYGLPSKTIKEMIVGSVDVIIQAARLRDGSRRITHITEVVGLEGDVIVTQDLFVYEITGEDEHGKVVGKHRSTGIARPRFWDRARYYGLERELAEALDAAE

On to `Nc1ncnc2c1ncn2[C@@H]1O[C@H](COP(=O)(O)OP(=O)(O)OP(=O)(O)O)[C@@H](O)[C@H]1O` [ATP], for which the ATPase activity result at CpaF^73-501 was “Enzyme-coupled ATPase assays revealed that IDR truncation does not abrogate enzyme activity”; on CpaF, “IDR truncation does not abrogate enzyme activity while a Walker A motif point mutant CpaF^K287A does”; at CpaF^66-501, “Enzyme-coupled ATPase assays revealed that IDR truncation does not abrogate enzyme activity”; at CpaF^80-501, “Enzyme-coupled ATPase assays revealed that IDR truncation does not abrogate enzyme activity”.

B1: Caulobacter crescentus CpaF (Tad pilus motor ATPase) (enzyme, Caulobacter crescentus NA1000, UniProt Q9L714 1-501, looked up)
chain: MFGKRDSSASGDPKAPPPAPAGGATIATRPQRVEPVAAPEPKAPAPKVSGPAPKPTVGLEQLRAAQGQPQTANIVREQSDYYHATKTTIFNALLNTIDLSQLAQLDLKQAGEEIRDIVAELVAIKNVSMSVAEQEHLVQDIINDVLGYGPLEPLLARDDIADIMVNGAHRVFIEVGGKVQLTNVRFRDNLQLMNICQRIVSQVGRRVDESSPICDARLPDGSRVNVIAPPLALDGPTLTIRKFKKDKLTMKNLVEFASISPEGARVLGVIGACRCNLVISGGTGSGKTTLLNTMTAFIDPTERVVTCEDAAELQLQQPHVVRLETRPPNLEGSGAVTMRDLVKNCLRMRPERIIVGEVRGPEAFDLLQAMNTGHDGSMGTLHANSPREAISRIESMITMGGYGLPSKTIKEMIVGSVDVIIQAARLRDGSRRITHITEVVGLEGDVIVTQDLFVYEITGEDEHGKVVGKHRSTGIARPRFWDRARYYGLERELAEALDAAE
notes: CpaF, Caulobacter crescentus NA1000, cloned from genomic DNA into pET28a; 501 residues (IDR 1-79, 3HB 80-146, NTD-CAD 147-501); residues 80-501 are modelled in the maps, the IDR is not resolved; Hexamer with C2 symmetry in all five cryo-EM structures; the construct was cloned from strain NA1000; also called WT CpaF; full length CpaF; source: E. coli Rosetta 2, purified (Ni-NTA, Superose 6 SEC)
For orientation: stoichiometry N means the number of molecules, sites or subunits per partner or assembly. In the case of B1, the “stoichiometry N” value in series [1] was found to be 6.

These data come from publication PMC12019362, “Conformational changes in the motor ATPase CpaF facilitate a rotary mechanism of Tad pilus assembly” (Nature Communications, 2025).
